The record followed here is the NIST ThermoML archive (doi:10.1016/j.tca.2016.10.016).

The conditions of data set [1]: Crystal; DTA.
Data set [2] is described as follows: Molar enthalpy of transition or fusion. The following applies: Crystal; DSC.

Where “and” joins values, the source holds several entries; their conditions need not be identical. Equal entries are not always repeated. ± gives the expanded uncertainty stated by the source.

Take `O.O.O=C(O)C(=O)O` [ethanedioic acid dihydrate]: the Normal melting temperature in data set [1] was 99.60 ± 0.7 °C and 101.20 ± 0.7 °C. The “Molar enthalpy of transition or fusion” value in data set [2] was 11.3 kcal/mol and 11.2 kcal/mol.
